ChEMBL document CHEMBL3885861, “Open TG-GATES”

Species on record: Rattus norvegicus
Test: Open TG-GATES - Regimen: Daily Repeat
Type: toxicity, organism-based, Sprague-Dawley
Parameters: regimen Daily Repeat, gender Male, age 6 weeks
Details: in vivo, po, 0 mg/kg, route gavage, dose level Control; for APTT / Bas / Eos / Fbg / Hb / Ht / Lym / MCH / MCHC / MCV / Mono / Neu / PT / Plat / RBC / Ret / WBC: tissue Blood; for KIDNEY_L / KIDNEY_R / KIDNEY_TOTAL: tissue Kidney; for LIVER: tissue Liver; for ALP / ALT / AST / BUN / CRE / DBIL / GLC / IP / K / LDH / Na / PL / RALB / TBIL / TC / TG / TP / gamma-GTP: tissue Plasma

CC(CCc1ccccc1)NCC(O)c1ccc(O)c(C(N)=O)c1 (stereo not drawn) [LABETALOL]
TERMINAL_BW (72 h, time 3 day): 252.2 g
APTT (72 h, time 3 day): 16.5 s
Bas (72 h, time 3 day): 0%
Eos (72 h, time 3 day): 1%
Fbg (72 h, time 3 day): 295.4 mg/dL
Hb (72 h, time 3 day): 13.4 g/dL
Ht (72 h, time 3 day): 38.9%
Lym (72 h, time 3 day): 75.4%
MCH (72 h, time 3 day): 21.3 pg
MCHC (72 h, time 3 day): 34.3%
MCV (72 h, time 3 day): 62.2 fL
Mono (72 h, time 3 day): 3.6%
Neu (72 h, time 3 day): 19.6%
PT (72 h, time 3 day): 12.8 s
Plat (72 h, time 3 day): 116.3 x10_4/uL
RBC (72 h, time 3 day): 627 x10_4/ul
Ret (72 h, time 3 day): 6.4%
WBC (72 h, time 3 day): 105.6 x10_2/uL
KIDNEY_L (72 h, time 3 day): 1.1 g
KIDNEY_R (72 h, time 3 day): 1.1 g
KIDNEY_TOTAL (72 h, time 3 day): 2.2 g
LIVER (72 h, time 3 day): 12.1 g
ALP (72 h, time 3 day): 1730.4 IU/L
ALT (72 h, time 3 day): 44.2 IU/L
AST (72 h, time 3 day): 70 IU/L
BUN (72 h, time 3 day): 15.4 mg/dL
CRE (72 h, time 3 day): 0.2 mg/dL
DBIL (72 h, time 3 day): 0.014 mg/dL
GLC (72 h, time 3 day): 190.6 mg/dL
IP (72 h, time 3 day): 7.8 mg/dL
K (72 h, time 3 day): 4 meq/L
LDH (72 h, time 3 day): 60.6 IU/L
Na (72 h, time 3 day): 143.4 meq/L
PL (72 h, time 3 day): 158 mg/dL
RALB (72 h, time 3 day): 2.7 g/dL
TBIL (72 h, time 3 day): 0.032 mg/dL
TC (72 h, time 3 day): 85.6 mg/dL
TG (72 h, time 3 day): 111.4 mg/dL
TP (72 h, time 3 day): 5.8 g/dL
gamma-GTP (72 h, time 3 day): 1 IU/L
TERMINAL_BW ([…], time 7 day): 289.5 g
TERMINAL_BW ([…], time 14 day): 341.4 g
TERMINAL_BW ([…], time 28 day): 418.9 g
APTT ([…], time 7 day): 17.2 s
Bas ([…], time 7 day): 0%
Eos ([…], time 7 day): 0.8%
Fbg ([…], time 7 day): 319.2 mg/dL
Hb ([…], time 7 day): 13.6 g/dL
Ht ([…], time 7 day): 38.7%
Lym ([…], time 7 day): 78.2%
MCH ([…], time 7 day): 21.4 pg
MCHC ([…], time 7 day): 35.1%
MCV ([…], time 7 day): 61 fL
Mono ([…], time 7 day): 3%
Neu ([…], time 7 day): 16.8%
PT ([…], time 7 day): 12.5 s
Plat ([…], time 7 day): 117.8 x10_4/uL
RBC ([…], time 7 day): 635.2 x10_4/ul
Ret ([…], time 7 day): 6%
WBC ([…], time 7 day): 108.5 x10_2/uL
APTT ([…], time 14 day): 17.8 s
Bas ([…], time 14 day): 0.2%
Eos ([…], time 14 day): 1%
Fbg ([…], time 14 day): 271.4 mg/dL
Hb ([…], time 14 day): 14.6 g/dL
Ht ([…], time 14 day): 42.4%
Lym ([…], time 14 day): 71.8%
MCH ([…], time 14 day): 21.1 pg
MCHC ([…], time 14 day): 34.4%
MCV ([…], time 14 day): 61.5 fL
Mono ([…], time 14 day): 2.8%
Neu ([…], time 14 day): 23.8%
PT ([…], time 14 day): 12.8 s
Plat ([…], time 14 day): 104.1 x10_4/uL
RBC ([…], time 14 day): 689 x10_4/ul
Ret ([…], time 14 day): 4.5%
WBC ([…], time 14 day): 82.7 x10_2/uL
APTT ([…], time 28 day): 18.5 s
Bas ([…], time 28 day): 0.6%
Eos ([…], time 28 day): 1.2%
Fbg ([…], time 28 day): 289 mg/dL
Hb ([…], time 28 day): 15.1 g/dL
Ht ([…], time 28 day): 43.5%
Lym ([…], time 28 day): 76.2%
MCH ([…], time 28 day): 20.2 pg
MCHC ([…], time 28 day): 34.8%
MCV ([…], time 28 day): 58.3 fL
Mono ([…], time 28 day): 3.2%
Neu ([…], time 28 day): 18.4%
PT ([…], time 28 day): 12.9 s
Plat ([…], time 28 day): 98.3 x10_4/uL
RBC ([…], time 28 day): 748.2 x10_4/ul
Ret ([…], time 28 day): 2.5%
WBC ([…], time 28 day): 98.7 x10_2/uL
KIDNEY_L ([…], time 7 day): 1.2 g
KIDNEY_R ([…], time 7 day): 1.2 g
KIDNEY_TOTAL ([…], time 7 day): 2.5 g
KIDNEY_L ([…], time 14 day): 1.3 g
KIDNEY_R ([…], time 14 day): 1.2 g
KIDNEY_TOTAL ([…], time 14 day): 2.4 g
KIDNEY_L ([…], time 28 day): 1.4 g
KIDNEY_R ([…], time 28 day): 1.4 g
KIDNEY_TOTAL ([…], time 28 day): 2.9 g
LIVER ([…], time 7 day): 13.1 g
LIVER ([…], time 14 day): 13.9 g
LIVER ([…], time 28 day): 16.1 g
ALP ([…], time 7 day): 1548.4 IU/L
ALT ([…], time 7 day): 43.4 IU/L
AST ([…], time 7 day): 69.8 IU/L
BUN ([…], time 7 day): 14.2 mg/dL
CRE ([…], time 7 day): 0.2 mg/dL
DBIL ([…], time 7 day): 0.012 mg/dL
GLC ([…], time 7 day): 188.4 mg/dL
IP ([…], time 7 day): 7.8 mg/dL
K ([…], time 7 day): 3.8 meq/L
LDH ([…], time 7 day): 64.6 IU/L
Na ([…], time 7 day): 143.2 meq/L
PL ([…], time 7 day): 149.2 mg/dL
RALB ([…], time 7 day): 2.7 g/dL
TBIL ([…], time 7 day): 0.034 mg/dL
TC ([…], time 7 day): 85.4 mg/dL
TG ([…], time 7 day): 86.8 mg/dL
TP ([…], time 7 day): 5.8 g/dL
gamma-GTP ([…], time 7 day): 1 IU/L
ALP ([…], time 14 day): 1377.6 IU/L
ALT ([…], time 14 day): 45.8 IU/L
AST ([…], time 14 day): 72.4 IU/L
BUN ([…], time 14 day): 15.2 mg/dL
CRE ([…], time 14 day): 0.2 mg/dL
DBIL ([…], time 14 day): 0.014 mg/dL
GLC ([…], time 14 day): 197 mg/dL
IP ([…], time 14 day): 6.9 mg/dL
K ([…], time 14 day): 3.7 meq/L
LDH ([…], time 14 day): 79.4 IU/L
Na ([…], time 14 day): 144.6 meq/L
PL ([…], time 14 day): 146.8 mg/dL
RALB ([…], time 14 day): 2.8 g/dL
TBIL ([…], time 14 day): 0.024 mg/dL
TC ([…], time 14 day): 74 mg/dL
TG ([…], time 14 day): 120.8 mg/dL
TP ([…], time 14 day): 6.2 g/dL
gamma-GTP ([…], time 14 day): 1 IU/L
ALP ([…], time 28 day): 1192 IU/L
ALT ([…], time 28 day): 43.2 IU/L
AST ([…], time 28 day): 67 IU/L
BUN ([…], time 28 day): 17 mg/dL
CRE ([…], time 28 day): 0.2 mg/dL
DBIL ([…], time 28 day): 0.022 mg/dL
GLC ([…], time 28 day): 199 mg/dL
IP ([…], time 28 day): 6.5 mg/dL
K ([…], time 28 day): 3.6 meq/L
LDH ([…], time 28 day): 63.8 IU/L
Na ([…], time 28 day): 142.4 meq/L
PL ([…], time 28 day): 151.2 mg/dL
RALB ([…], time 28 day): 2.8 g/dL
TBIL ([…], time 28 day): 0.036 mg/dL
TC ([…], time 28 day): 77.6 mg/dL
TG ([…], time 28 day): 143.2 mg/dL
